# Experimental data: patent US20090191571A1 (priority 2005, published 2009)
# Target: PrP^Sc (Mus musculus, UniProt P04925)
# Sequence (P04925 23-230 limits assumed): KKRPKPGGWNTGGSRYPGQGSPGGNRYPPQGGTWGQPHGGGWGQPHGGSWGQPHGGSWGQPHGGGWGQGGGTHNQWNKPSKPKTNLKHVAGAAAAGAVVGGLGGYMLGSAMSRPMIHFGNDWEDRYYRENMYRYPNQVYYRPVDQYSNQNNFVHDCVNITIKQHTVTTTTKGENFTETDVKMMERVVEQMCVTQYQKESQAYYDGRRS
substance,measurement,value
(GGG)KKRPKPGG [SEQ ID NO:68],"binding to PrP^Sc, Western blotting (FIG. 4, lane 5)",strong binding
